The results in this text go back to US11919907B2, “Deuterated JAK inhibitor and uses thereof” (Sun Pharmaceutical Industries, Inc., priority 2020, dated 2024).

The target in data set [1] is T1, kinase domain of human recombinant JAK2 (Homo sapiens, UniProt O60674).
T1 construct: using the kinase domains of human recombinant JAK1, JAK2, JAK3 and TYK2
As to the kind of experiment: JAK enzyme biochemical assay (Eurofins CEREP), JAK2. To be noted: ATP at Km, 100 nM substrate peptide, 60 minutes, duplicate. The method, then: (§1) JAK enzyme biochemical assays were performed at Eurofins CEREP, France using the kinase domains of human recombinant JAK1, JAK2, JAK3 and TYK2. Each enzyme reaction was carried out with Compound 10 (supplied by Concert Pharmaceuticals) or control, JAK enzyme, 100 nM substrate peptide (LANCE® Ultra U-light JAK-1 peptide) and adenosine triphosphate (ATP; concentration at Km) for 60 minutes. Test compounds were dissolved in DMSO and tested in duplicate. It can be seen that Compound 10 had significant potency for inhibition of JAK enzymes.

The target in data set [2] is T2, kinase domain of human recombinant TYK2 (Homo sapiens, UniProt P29597).
T2 construct: using the kinase domains of human recombinant JAK1, JAK2, JAK3 and TYK2
T2 sequence (P29597 897-1176 limits assumed): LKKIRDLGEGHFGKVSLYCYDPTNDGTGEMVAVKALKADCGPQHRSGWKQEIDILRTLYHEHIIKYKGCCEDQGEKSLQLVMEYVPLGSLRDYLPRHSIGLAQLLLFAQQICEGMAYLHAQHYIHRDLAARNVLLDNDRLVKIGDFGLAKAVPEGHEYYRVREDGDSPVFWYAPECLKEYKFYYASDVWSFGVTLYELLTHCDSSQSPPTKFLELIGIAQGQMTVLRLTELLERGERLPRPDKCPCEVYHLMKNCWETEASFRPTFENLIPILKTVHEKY
As to the kind of experiment: JAK enzyme biochemical assay (Eurofins CEREP), TYK2. The note with it: ATP at Km, 100 nM substrate peptide, 60 minutes, duplicate. As to the method:
as §1

The nature of data set [3]: Metabolic stability using human liver microsomes. To be noted: for half-life at 0.25 μM: human. The format is in vitro ADME. The method, then: Materials: Human liver microsomes (20 mg/mL) were obtained from Xenotech, LLC (Lenexa, Kans.). β-nicotinamide adenine dinucleotide phosphate, reduced form (NADPH), magnesium chloride (MgCl2), and dimethyl sulfoxide (DMSO) were purchased from Sigma-Aldrich. Compound 10 and non-deuterated Compound 50 as test compounds were supplied by Concert Pharmaceuticals:
Determination of Metabolic Stability: 7.5 mM stock solutions of test compounds were prepared in DMSO. The 7.5 mM stock solutions were diluted to 12.5 μM in acetonitrile (ACN). The human liver microsomes were diluted in 0.1 M potassium phosphate buffer, pH 7.4, containing 3 mM MgCl2. The diluted microsomes were added to wells of a 96-well deep-well polypropylene plate in triplicate. A 10 μL aliquot of the 12.5 μM test compound was added to the microsomes and the mixture was pre-warmed for 10 minutes. Reactions were initiated by addition of pre-warmed NADPH solution. The final reaction volume was 0.5 mL and contained […] human liver microsomes, 0.25 μM test compound, and 2 mM NADPH in 0.1 M potassium phosphate buffer, pH 7.4, and 3 mM MgCl2. The reaction mixtures were incubated at 37° C., and 50 μL aliquots were removed at 0, 10, 20, 30, 45, and 60 minutes and added to shallow-well 96-well plates which contained 50 μL of ice-cold ACN with internal standard to stop the reactions. The plates were stored at 4° C. for 20 minutes after which 100 μL of water was added to the wells of the plate before centrifugation to pellet precipitated proteins. Supernatants were transferred to another 96-well plate and analyzed for amounts of parent remaining by LC-MS/MS using an Applied Bio-systems mass spectrometer.
Data analysis: The in vitro t1/2s for test compounds were calculated from the slopes of the linear regression of % parent remaining (ln) vs incubation time relationship. in vitro t1/2=0.693/k k=−[slope of linear regression of % parent remaining(ln) vs incubation time] Data analysis was performed using Microsoft Excel Software.

Data set [4] deals with T3, kinase domain of human recombinant JAK3 (Homo sapiens, UniProt P52333).
T3 construct: using the kinase domains of human recombinant JAK1, JAK2, JAK3 and TYK2
T3 sequence (P52333 822-1111 limits assumed): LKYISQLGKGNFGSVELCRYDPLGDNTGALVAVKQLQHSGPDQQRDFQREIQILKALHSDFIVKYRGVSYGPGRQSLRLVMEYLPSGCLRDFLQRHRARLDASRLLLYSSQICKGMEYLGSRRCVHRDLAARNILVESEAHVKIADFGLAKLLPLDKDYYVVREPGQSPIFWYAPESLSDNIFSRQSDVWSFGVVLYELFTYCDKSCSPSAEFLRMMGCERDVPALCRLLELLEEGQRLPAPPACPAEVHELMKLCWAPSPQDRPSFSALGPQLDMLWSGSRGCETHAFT
As to the kind of experiment: JAK enzyme biochemical assay (Eurofins CEREP), JAK3. The note with it: ATP at Km, 100 nM substrate peptide, 60 minutes, duplicate. As to the method: as §1

Data set [5] has as its target T4, kinase domain of human recombinant JAK1 (Homo sapiens, UniProt P23458).
T4 construct: using the kinase domains of human recombinant JAK1, JAK2, JAK3 and TYK2
As to the kind of experiment: JAK enzyme biochemical assay (Eurofins CEREP), JAK1. To be noted: ATP at Km, 100 nM substrate peptide, 60 minutes, duplicate. As to the method: as §1

The mark [6] stands for this setting: pH 7.4, 5 mg/mL human liver microsomes, 0.25 μM test compound, 2 mM NADPH, 37° C., experiment 2498, read-out: t1/2 EXP# 2498.
[7] abbreviates: pH 7.4, 5 mg/mL human liver microsomes, 0.25 μM test compound, 2 mM NADPH, 37° C., experiment 2500, read-out: t1/2 EXP# 2500.
[8] abbreviates: pH 7.4, 5 mg/mL human liver microsomes, 0.25 μM test compound, 2 mM NADPH, 37° C., experiment 2501, read-out: t1/2 EXP# 2501.
[9] abbreviates: pH 7.4, human liver microsomes, average of EXP# 2498, 2500, 2501, read-out: t1/2 Average.

Like-named read-outs stand apart in the source and are kept apart here.

What is called IC50 is the concentration that gives 50% inhibition.

T4 sequence (P23458 875-1153 limits assumed): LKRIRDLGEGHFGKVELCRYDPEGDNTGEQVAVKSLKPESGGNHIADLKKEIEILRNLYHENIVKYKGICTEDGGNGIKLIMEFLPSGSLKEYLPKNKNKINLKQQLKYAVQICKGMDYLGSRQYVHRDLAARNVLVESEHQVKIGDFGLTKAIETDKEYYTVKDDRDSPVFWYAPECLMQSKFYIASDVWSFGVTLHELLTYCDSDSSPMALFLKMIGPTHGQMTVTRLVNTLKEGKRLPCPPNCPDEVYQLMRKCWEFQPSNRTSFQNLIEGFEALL
T1 sequence (O60674 849-1124 limits assumed): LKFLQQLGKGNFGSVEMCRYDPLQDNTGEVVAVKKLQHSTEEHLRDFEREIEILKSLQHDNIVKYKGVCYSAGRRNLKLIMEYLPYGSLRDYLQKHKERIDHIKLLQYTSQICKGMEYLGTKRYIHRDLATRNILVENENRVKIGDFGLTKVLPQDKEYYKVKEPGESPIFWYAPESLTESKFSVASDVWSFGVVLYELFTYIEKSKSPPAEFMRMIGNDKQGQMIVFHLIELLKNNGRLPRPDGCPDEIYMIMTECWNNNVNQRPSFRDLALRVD

For the compound `[2H]C1([2H])C([C@@H](CC(N)=O)n2cc(-c3ncnc4[nH]ccc34)cn2)C([2H])([2H])C([2H])([2H])C1([2H])[2H]` [Compound 10], the concentration for half-maximal inhibition (IC50) was found to be 34 nM in data set [1], 368 nM in data set [2], 226 nM in data set [4] and 63.9 nM in data set [5]. Moreover, the “Average % diff. in t1/2 (longer half-life than non-deuterated Compound 50)” value in data set [3] (Compound 10 versus Compound 50, average t1/2) was 176%. The half-life at 0.25 μM in data set [3] (setting [6]) is 1.6 h; in data set [3] (setting [7]), 4.5 h; in data set [3] (setting [8]), 4.97 h; in data set [3] (setting [9]), 3.68 h.

`NC(=O)C[C@H](C1CCCC1)n1cc(-c2ncnc3[nH]ccc23)cn1` [Compound 50, reference compound]: the half-life at 0.25 μM in data set [3] (setting [6]) came to 0.822 h; in data set [3] (setting [7]), 1.33 h; in data set [3] (setting [8]), 1.87 h; in data set [3] (setting [9]) it was 1.33 h.
